Patent EP2135864A1, “5-(4-methanesulfonyl-phenyl)-thiazole derivatives for the treatment of acute and chronic inflammatory diseases” (FAES FARMA, S.A., priority 2008, dated 2009)

Assays:
Format in all cases: cell-based, human
IL-8 [1] = assay: IL-8 production by PBMC from healthy volunteers, CBA; conditions: 24 hours, mean ± standard error, n=13
Method: (§1) CBA protocol was followed according to the manufacturer's instructions. The election of microparticles was performed following the summary of Figure 1.
(§2) The acquisition on samples was performed with the BD FACS Array Bioanalyser System (FACSArray, Becton Dickinson, San José, CA, USA) and the analysis of the results was completed with the software FCAP Array (Becton Dickinson) in a PC computer.
(§3) Briefly, the experimental protocol consisted of a plate pre-washing out with Wash Buffer. After decantation, the mixture of capture microparticles was re-suspended in the vortex. Standards and samples were added in the adequate dilution. After permanent stirring incubation during 1 h, the PE detection reagent was added and incubated again during 2h at room temperature. After a washing-out, the acquisition was performed in the flow cytometer. Table 3. -Kit CBA Human Soluble Protein Multiplex Flex Set System.
The effect of compound 12 on the IL-8 production by the PBMC from healthy volunteers was further investigated, both in the presence and absence of LPS stimuli and monoclonal antibodies anti-CD3 and anti-CD28. PBMC (5 x 10^4 cells/well) from 13 healthy volunteers were cultured in duplicate in 200 µl of complete medium supplemented with the highest solvent concentration (10^-6 M), and 10^-6 M, 10^-7 M and 10^-8 M of compound 12, in the presence and absence of either LPS (10 µg/ml) or anti-CD3 (12.5 ng/ml) + anti-CD28 (1/3x10^5), during 24 hours. Culture supernatants were frozen at -20°C and IL-8 concentration was quantified by BD FACS Array Bioanalyser by using CBA Flex Set, specific to determine the IL-8 concentration, following the manufacturer instructions.

CD62L [2] = assay: Shedding of CD62L in lymphocytes of PBMC, flow cytometry; conditions: lymphocytes of PBMC from healthy volunteers, mean ± standard error, n=10, vehicle 112.68±13.57
Method: Direct immuno-fluorescence techniques of one colour with monoclonal antibodies phycoerythrin-labeled (PE) was used. PE is a fluorescent substance excitable with a 488 nm laser, which emits at 570 nm, and it is detectable and easily distinguishable by a flow cytometer. By using the antibody described in Table 1, a direct labelling was performed: PBMC labelling: the process consisted in a labelling using 96 well V bottom plates. In each well, 5 x 10^4 cells are located, and afterwards centrifugated at 400 xg during 5 minutes. After washing-out, cells are re-suspended and 5 µl of the corresponding monoclonal antibody are added. Cells are again re-suspended and the plate is incubated in darkness, during 20 minutes, at 4°C. Subsequently, 150 µl PBS are added and two wash-outs are performed. Finally, it is re-suspended in 150 µl PBS and collected in a cytometer tube, adding PBS up to a final volume of 0.3 ml. For the counting, a FACSCalibur flow cytometer equipped with argon laser tuned at 488 nm was used in order to induce phycoerythrin fluorescence. The equipment, apart from the fluorescence channels, also provided information about the size (FSC) and cellular complexity (SSC). […]
Table 14. -Mean fluorescence intensity of surface CD62L expression in lymphocytes. p values correspond to data with respect to the vehicle for each experimental condition.

CD62L [3] = assay: Shedding of CD62L in monocytes of PBMC, flow cytometry; conditions: monocytes of PBMC from healthy volunteers, mean ± standard error, n=10, vehicle 65.34±8.06
IFN-gamma = IFN-gamma production by PBMC from healthy volunteers, CBA; conditions: 24 hours, mean ± standard error, n=13
Method: as §1, §2, §3
PBMC (5 x 10^4 cells per well) from 13 healthy volunteers were cultured in duplicate in 200 µl of complete medium supplemented with the highest solvent concentration (10^-6 M), and 10^-6 M, 10^-7 M and 10^-8 M of compound 12 in the presence or absence, either of LPS (10 µg/ml), or anti-CD3 (12.5 ng/ml) + anti-CD28 (1/3x10^5), during 24 hours. Culture supernatants were frozen at -20°C and the concentration of IFN-gamma was quantified by BD FACS Array Bioanalyser by using CBA Flex Set (Becton Dickinson), specific to determine the concentration of IFN-gamma, following the manufacturer instructions.

IL-8 [4] = assay: IL-8 production by PBMC from patients with rheumatoid arthritis, CBA; conditions: 24 hours, mean ± standard error, n=8
Method: as §1, §2, §3
The effect on IL-8 production by PBMC from patients with rheumatoid arthritis was also studied. PBMC (5 x 10^4 cells per well) from 8 patients with rheumatoid arthritis were cultured in duplicate in 200 µl of complete medium supplemented with the highest solvent concentration (10^-6 M), and 10^-6 M, 10^-7 M and 10^-8 M of compound 12, in the presence and in the absence of either LPS (10 µg/ml) or anti-CD3 (12.5 ng/ml) + anti-CD28 (1/3x10^5), during 24 hours. Culture supernatants were frozen at -20°C and IL-8 concentration was quantified by BD FACS Array Bioanalyser by using CBA Flex Set, specific to determine IL-8 concentration, following the manufacturer instructions.

SMILES: Cc1nc(OC2CCCC2)c(-c2ccc(S(C)(=O)=O)cc2)s1 [compound 12, 4-cyclopentyloxy-5-(4-methylsulfonyl-phenyl)-2-methylthiazole]
- IL-8 production by PMBC from healthy volunteers (IL-8 [1]; LPS (10µg/ml), 10^-6 M, vehicle 173877.36±8474.49, p 0.807): 168467.15±9656.96 (0.807) pg/mL
- IL-8 production by PMBC from healthy volunteers (IL-8 [1]; LPS (10µg/ml), 10^-7 M, vehicle 173877.36±8474.49, p 0.249): 162075.59±10258.41 (0.249) pg/mL
- IL-8 production by PMBC from healthy volunteers (IL-8 [1]; LPS (10µg/ml), 10^-8 M, vehicle 173877.36±8474.49, p 0.861): 169609.11±9060.90 (0.861) pg/mL
- IL-8 production by PMBC from healthy volunteers (IL-8 [1]; anti-CD3 (12.5 ng/ml) + anti-CD28 (1/3x10^5), 10^-6 M, vehicle 107008.56±8351.21, p 0.311): 99779.72±20000 (0.311) pg/mL
- IL-8 production by PMBC from healthy volunteers (IL-8 [1]; anti-CD3 (12.5 ng/ml) + anti-CD28 (1/3x10^5), 10^-7 M, vehicle 107008.56±8351.21, p 0.055): 97968.61±10220.21 (0.055) pg/mL
- IL-8 production by PMBC from healthy volunteers (IL-8 [1]; anti-CD3 (12.5 ng/ml) + anti-CD28 (1/3x10^5), 10^-8 M, vehicle 107008.56±8351.21, p 0.028): 92989.29±8463.47 (0.028) pg/mL
- IL-8 production by PMBC from healthy volunteers (IL-8 [1]; medium, 10^-6 M, vehicle 72814.17±10647.16, p 0.016): 45634.31±6311.13 (0.016) pg/mL
- IL-8 production by PMBC from healthy volunteers (IL-8 [1]; medium, 10^-7 M, vehicle 72814.17±10647.16, p 0.006): 53732.66±7952.75 (0.006) pg/mL
- IL-8 production by PMBC from healthy volunteers (IL-8 [1]; medium, 10^-8 M, vehicle 72814.17±10647.16, p 0.087): 57773.60±6667.57 (0.087) pg/mL
- Mean fluorescence intensity of surface CD62L expression in lymphocytes (MFI) (CD62L [2]; 10^-6 M, p 0.47 as printed): 90.01±8.93 (0.47)
- Mean fluorescence intensity of surface CD62L expression in lymphocytes (MFI) (CD62L [2]; 10^-7 M, p 0.333): 116.90±11.02 (0.333)
- Mean fluorescence intensity of surface CD62L expression in monocytes (MFI) (CD62L [3]; 10^-6 M, p 0.721): 63.90±8.52 (0.721)
- Mean fluorescence intensity of surface CD62L expression in monocytes (MFI) (CD62L [3]; 10^-7 M, p 0.878): 72.30±10.21 (0.878)
- IFN-gamma production in PMBC from healthy volunteers (IFN-gamma; LPS (10µg/ml), 10^-6 M, vehicle 860.42±105.00, p 0.011): 649.61±120.00 (0.011) pg/mL
- IFN-gamma production in PMBC from healthy volunteers (IFN-gamma; LPS (10µg/ml), 10^-7 M, vehicle 860.42±105.00, p 0.552): 919.53±130.00 (0.552) pg/mL
- IFN-gamma production in PMBC from healthy volunteers (IFN-gamma; LPS (10µg/ml), 10^-8 M, vehicle 860.42±105.00, p 0.382): 1049.85±230.00 (0.382) pg/mL
- IFN-gamma production in PMBC from healthy volunteers (IFN-gamma; anti-CD3 (12.5 ng/ml) + anti-CD28 (1/3x10^5), 10^-6 M, vehicle 11802.22±1300.00, p 0.019): 7927.17±1003.00 (0.019) pg/mL
- IFN-gamma production in PMBC from healthy volunteers (IFN-gamma; anti-CD3 (12.5 ng/ml) + anti-CD28 (1/3x10^5), 10^-7 M, vehicle 11802.22±1300.00, p 0.917): 11552.08±1600.00 (0.917) pg/mL
- IFN-gamma production in PMBC from healthy volunteers (IFN-gamma; anti-CD3 (12.5 ng/ml) + anti-CD28 (1/3x10^5), 10^-8 M, vehicle 11802.22±1300.00, p 0.196): 10254.66±1500.00 (0.196) pg/mL
- IFN-gamma production in PMBC from healthy volunteers (IFN-gamma; medium, 10^-6 M, vehicle 283.78±90.00, p 0.279): 189.72±40.00 (0.279) pg/mL
- IFN-gamma production in PMBC from healthy volunteers (IFN-gamma; medium, 10^-7 M, vehicle 283.78±90.00, p 0.807): 296.28±90.00 (0.807) pg/mL
- IFN-gamma production in PMBC from healthy volunteers (IFN-gamma; medium, 10^-8 M, vehicle 283.78±90.00, p 0.807): 279.16±60.00 (0.807) pg/mL
- IL-8 production in PMBC from patients with rheumatoid arthritis (IL-8 [4]; LPS (10µg/ml), 10^-6 M, vehicle 150759.65±22966.06, p 0.012): 185536.78±22000.00 (0.012) pg/mL
- IL-8 production in PMBC from patients with rheumatoid arthritis (IL-8 [4]; LPS (10µg/ml), 10^-7 M, vehicle 150759.65±22966.06, p 0.208): 174156.23±13385.66 (0.208) pg/mL
- IL-8 production in PMBC from patients with rheumatoid arthritis (IL-8 [4]; LPS (10µg/ml), 10^-8 M, vehicle 150759.65±22966.06, p 0.012): 184541.37±21500.00 (0.012) pg/mL
- IL-8 production in PMBC from patients with rheumatoid arthritis (IL-8 [4]; anti-CD3 (12.5 ng/ml) + anti-CD28 (1/3x10^5), 10^-6 M, vehicle 118017.97±21116.00, p 0.263): 124576.09±14605.02 (0.263) pg/mL
- IL-8 production in PMBC from patients with rheumatoid arthritis (IL-8 [4]; anti-CD3 (12.5 ng/ml) + anti-CD28 (1/3x10^5), 10^-7 M, vehicle 118017.97±21116.00, p 0.889): 109607.00±18310.15 (0.889) pg/mL
- IL-8 production in PMBC from patients with rheumatoid arthritis (IL-8 [4]; anti-CD3 (12.5 ng/ml) + anti-CD28 (1/3x10^5), 10^-8 M, vehicle 118017.97±21116.00, p 0.575): 121587.88±16117.25 (0.575) pg/mL
- IL-8 production in PMBC from patients with rheumatoid arthritis (IL-8 [4]; medium, 10^-6 M, vehicle 57877.64±11143.52, p 0.208): 98012.08±8395.97 (0.208) pg/mL
- IL-8 production in PMBC from patients with rheumatoid arthritis (IL-8 [4]; medium, 10^-7 M, vehicle 57877.64±11143.52, p 0.161): 96498.50±10784.62 (0.161) pg/mL
- IL-8 production in PMBC from patients with rheumatoid arthritis (IL-8 [4]; medium, 10^-8 M, vehicle 57877.64±11143.52, p 0.123): 93977.67±9247.38 (0.123) pg/mL
